≈ marks a conversion by molar mass, not a printed value.
Key:
[1] = test system: Haemonchus contortus; experiment: Method A: screening of activity against Haemonchus contortus L1 larvae in microtitre plate (development to L3 / motility); conditions: for inhibition at 0.0025 ppm: test concentration 0.0025 ppm
From the text: Method A: Screening Method to Test Activity of Compounds Against Haemonchus contortus.

[2] = test system: Haemonchus contortus; experiment: Method B: activity against Haemonchus contortus in vivo in Mongolian gerbil; design: species or system Mongolian gerbil (Meriones unguiculatus); conditions: po, 72 h, oral gavage, read-out: reduction in nematode infection
Procedure: Method B: Screening Method to Test Activity of Compounds Against Haemonchus contortus In Vivo in Mongolian Gerbil (Meriones unguiculatus).
Mongolian gerbils, at least five weeks old, were immunosuppressed and artificially infected with ca. 1000 ensheathed Haemonchus contortus third instar larvae. Six days after infection, the Mongolian gerbils were treated by oral gavage with the test compounds, dissolved in a mixture of 2 parts DMSO and 1 part polyethylene glycol (PEG400), at doses of 100 mg/kg and dissolved in pure polyethylene glycol (PEG400) at doses of 10 and 1 mg/kg. Mongolian gerbils treated only with the placebo (2 parts DMSO and 1 part PEG400 or pure PEG400) served as controls. On day 9 (3 days after treatment) the jirds were euthanized and necropsied for recovery of parasites from the stomach. Efficacy was calculated as the average % reduction in the number of worms in each test group compared with the average number of worms from the control group. […] Compound numbers 1.001, 1.008, 1.012, 1.013 and 1.014 provided at least 95% reduction in nematode in Mongolian gerbils treated by oral gavage with test article at a dose of 100 mg/kg. Compound numbers 1.012, 1.033, 1.064, 2.008, 2.037, 2.038, 2.040, 2.041, 3.001 provided at least 95% reduction in nematode infection at a dose of 10 mg/kg. Compound numbers 1.094, 1.096, 2.048, 3.001, 3.007 and 3.009, provided at least 95% reduction in nematode infection at a dose of 1 mg/kg. Compound numbers 3.006, 3.017 and 3.019 provided at least 95% reduction in nematode infection at a dose of 0.5 mg/kg. Compound numbers 3.005, 3.011 and 3.012 provided at least 95% reduction in nematode infection at a dose of 0.3 mg/kg. The eutomer compound number 3.024 provided at least 95% reduction in nematode infection at a dose of 0.1 mg/kg.

[3] = Feed solubility in ethanol (preparative chiral separation); type: physicochemical; conditions: organic solvent or mixture, with stirring and heating
Procedure: The feed solution was filtered through a 0.2 μm filter before use. The enantiomers were separated using a CHIRALPAK®AD® column (CHIRAL Technologies Inc., 20 μm particle size of amylose tris(3,5-dimethylphenylcarbamate) polysaccharide CHIRALPAK®AD® stationary phase, 5 cm internal diameter, 50 cm length at 25° C. and flow rate of 110 mL/min) with injection volume of 65 mL every 11 min. The fractions collected from the chromatographic process for each of the two chromatographic eluting peaks were concentrated using a a 20 L rotary evaporator at 40° C. and 50 mbar. After solvent removal, the products were dried to constant weight in a vacuum oven at 40° C. The target eutomer (+)-N-[2-(6-Bromo-2H-pyrazolo[4,3-b]pyridin-2-yl)-1-cyano-1-methylethyl]-4-trifluoromethoxybenzamide was isolated from the first eluting peak with a recovery yield of 89.0% (19.3 g). […] The distomer (−)-N-[2-(6-Bromo-2H-pyrazolo[4,3-b]pyridin-2-yl)-1-cyano-1-methylethyl]-4-trifluoromethoxybenzamide was isolated from the second eluting peak with a recovery yield of 94.5% (20.5 g). The percent enantiomeric excess of the distomer is 98.8% as measured via analytical chiral HPLC using a CHIRALPAK®AD® column (CHIRAL Technologies Inc., 4.6×250 mm, at 30° C., flow rate of 0.7 mL/min of EtOH mobile phase, retention time=12.5 min).

[4] = test system: Toxocara cati; experiment: Method G: anthelmintic efficacy against induced infections of adult nematodes in cats, Toxocara cati; type: in vivo; conditions: oral, once, doses as low as 1 mg/kg
Procedure: (§1) Method G: Evaluation of Anthelmintic Efficacy Against Induced Infections of Adult Nematodes in Cats
(§2) Cats were inoculated on three consecutive days with an aliquot of infective eggs of Toxocara cati (days −63, −62, −61) and Ancylostoma tubaeforme (days −28, −27, −26) from one bulk solution each. The inoculation schedule was designed such that nematodes were adult on day 0. The approximate number of infective eggs/larvae given was recorded. Fecal samples were collected between day −7 and day −1 and examined to confirm the presence of infections, and are reported as eggs/gram of feces. Each formulation was orally administered once on day 0. On day 8, the cats were humanely euthanized. The stomach, cecum, small and large intestines were removed and the total content was retained for parasite recovery. Parasites were collected and identified. Efficacy was determined for each nematode species by calculating the percent efficacy as 100[(C−T)/C], where C is the mean count among untreated controls and T is the count of the treated animals.

[5] = test system: Ancylostoma tubaeforme; experiment: Method G: anthelmintic efficacy against induced infections of adult nematodes in cats, Ancylostoma tubaeforme; type: in vivo; conditions: oral, once, doses as low as 1 mg/kg
Procedure: as §1, §2

[6] = test system: Haemonchus placei; experiment: Method H: cattle in vivo, Haemonchus placei
From the text: (§3) Method H: Screening Method to Test Activity of Compounds Against Haemonchus placei, Ostertagia ostertagi, Trichostrongylus axei, Cooperia punctata, Bunostomum phlebotomum, Oesophagostomum radiatum, Dictyocaulus viviparus, and Nematodirus helvetianus In Vivo in Cattle.
(§4) Calves were challenged intra-aurally with larvae from Bunostomum phlebotomum (500-1000 L3 per animal) on Dat −56; and orally with larvae from Oesophagostomum radiatum (1,000-2,000 infective L3 per animal) on Dat −49, Nematodirus helvetianus (3,000-6,000 infective L3 per animal) on Dat −28, Haemonchus placei (5,000-7,000 infective L3 per animal) on Dat −28, Dictyocaulus viviparus (1,000-2,000 infective L3 per animal) on Dat −28, Ostertagia ostertagi (10,000-20,000 infective L3 per animal) on Dat −21, Trichostrongylus axei (10,000-20,000 infective L3 per animal) on Dat −21, Cooperia punctata (10,000-20,000 infective L3 per animal) on Dat −28, and Cooperia oncophora (10,000-20,000 infective L3 per animal) on Dat −21. The test compound was administered alone at a dose of 3 or 6 mg/kg orally or subcutaneously or subcutaneously at a dose of 6 mg/kg in combination with ivermectin at a dose of 50 mcg/kg. For oral administration, test compounds were formulated at a concentration of 10 mg/mL in DMSO/Corn oil (1:1). For subcutaneous administration, test compounds were formulated in propylene glycol/glycerol formal (60:40). All treatments were administered at Day 0. At necropsy on Day 14/15, the abomasa, small intestine and large intestine were removed and processed for parasite recovery. Nematode counts were conducted on appropriate aliquots. Efficacy was calculated for each nematode species by calculating the percent efficacy as 100[(C−T)/C], where C is the mean count among untreated controls and T is the count of the treated animals. Compound number 3.024 provided >95% efficacy against Haemonchus placei, Ostertagia ostertagi, Trichostrongylus axei, Cooperia punctata, Oesophagostomum radiatum and Nematodirus helvetianus at a dose as low as 3 mg/kg administered orally. […]

[7] = test system: Ostertagia ostertagi; experiment: Method H: cattle in vivo, Ostertagia ostertagi; conditions: compound alone, dose as low as 3 mg/kg administered orally
From the text: as §3
(§5) Calves were challenged intra-aurally with larvae from Bunostomum phlebotomum (500-1000 L3 per animal) on Dat −56; and orally with larvae from Oesophagostomum radiatum (1,000-2,000 infective L3 per animal) on Dat −49, Nematodirus helvetianus (3,000-6,000 infective L3 per animal) on Dat −28, Haemonchus placei (5,000-7,000 infective L3 per animal) on Dat −28, Dictyocaulus viviparus (1,000-2,000 infective L3 per animal) on Dat −28, Ostertagia ostertagi (10,000-20,000 infective L3 per animal) on Dat −21, Trichostrongylus axei (10,000-20,000 infective L3 per animal) on Dat −21, Cooperia punctata (10,000-20,000 infective L3 per animal) on Dat −28, and Cooperia oncophora (10,000-20,000 infective L3 per animal) on Dat −21. The test compound was administered alone at a dose of 3 or 6 mg/kg orally or subcutaneously or subcutaneously at a dose of 6 mg/kg in combination with ivermectin at a dose of 50 mcg/kg. […] Efficacy was calculated for each nematode species by calculating the percent efficacy as 100[(C−T)/C], where C is the mean count among untreated controls and T is the count of the treated animals. […]

[8] = test system: Trichostrongylus axei; experiment: Method H: cattle in vivo, Trichostrongylus axei; conditions: compound alone, dose as low as 3 mg/kg administered orally
From the text: as §3, §5

[9] = test system: Cooperia punctata; experiment: Method H: cattle in vivo, Cooperia punctata; conditions: compound alone, dose as low as 3 mg/kg administered orally
From the text: as §3, §5

[10] = test system: Oesophagostomum radiatum; experiment: Method H: cattle in vivo, Oesophagostomum radiatum; conditions: compound alone, dose as low as 3 mg/kg administered orally
From the text: as §3, §5

[11] = test system: Nematodirus helvetianus; experiment: Method H: cattle in vivo, Nematodirus helvetianus
From the text: as §3, §4

[12] = test system: Ivermectin-Resistant Haemonchus contortus, Ostertagia circumcincta, and Trichostrongylus colubriformis; experiment: Method I: activity against ivermectin-resistant nematodes in vivo in sheep (all species tested); conditions: oral, once, doses as low as 1.5 mg/kg
From the text: (§6) Method I: Screening Method to Test Activity of Compounds Against Ivermectin-Resistant Haemonchus contortus, Ostertagia circumcincta, and Trichostrongylus colubriformis In Vivo in Sheep.
(§7) Sheep were challenged orally with infective 3rd stage larvae (L3) of Ostertagia circumcincta (˜3,000-6,000 infective L3 per animal) on Dat −28, Haemonchus contortus (˜2,000-4,000 infective L3 per animal) on Dat −25, and Trichostrongylus colubriformis (˜3,000-6,000 infective L3 per species per animal) on Dat −23. The inoculation schedule was designed so that nematodes were expected to be in the adult stage on Day 0. Test compounds were dissolved in a mixture of DMSO/Corn oil (1:1) at a concentration of 10 mg/mL. All treatments were administered orally once on Day 0. At sacrifice on Day 14 the abomasum, small intestine and large intestine (including cecum) were removed. Nematode counts were conducted on 10% (abomasal and small intestinal content, abomasal soak) or 20% aliquots (large intestinal content). All nematodes were speciated, or assigned to species based on location of recovery (adult females, fourth-stage larvae) for a total count per species. Efficacy was calculated as the % reduction in the mean number of worms in each test group compared with the mean number of worms recovered from the control group. […]

[13] = test system: ivermectin-resistant Haemonchus contortus; experiment: Method I: sheep in vivo, ivermectin-resistant Haemonchus contortus
From the text: as §6, §7

[14] = test system: ivermectin-resistant Ostertagia circumcincta; experiment: Method I: sheep in vivo, ivermectin-resistant Ostertagia circumcincta
From the text: as §6, §7

[15] = test system: ivermectin-resistant Trichostrongylus columbriformis; experiment: Method I: sheep in vivo, ivermectin-resistant Trichostrongylus colubriformis
From the text: as §6, §7

[16] = test system: Caenorhabditis elegans; experiment: Inhibition of the motility of Caenorhabditis elegans
[17] = Haemonchus contortus, 96 h, 4 days assessment
[18] = compound alone, dose as low as 3 mg/kg administered orally
[19] = subcutaneous, 6 mg/kg in combination with ivermectin 50 μg/kg (0.05 mg/kg)
[20] = ivermectin alone, 0.2 mg/kg (200 μg/kg) subcutaneously

CC(C#N)(Cn1nc2c(Cl)cc(Cl)c(Cl)c2n1)NC(=O)c1ccc(OC(F)(F)F)cc1 (single isomer, unassigned; (+)) [Compound 1.096, (+)-N-[1-Cyano-1-methyl-2-(4,5,7-trichloro-2H-benzotriazol-2-yl)-ethyl]-4-trifluoromethoxybenzamide]
inhibition at 0.0025 ppm [1, 17]: ≥ 90%
inhibition in vivo at 1 mg/kg ([2]; dose 1 mg/kg, necropsy 3 days after treatment): ≥ 95%

CC(C#N)(Cn1cc2ncc(Cl)cc2n1)NC(=O)c1ccc(OC(F)(F)F)cc1 (stereo not drawn) [Compound 3.005, N-[2-(6-Chloro-2H-pyrazolo[4,3-b]pyridin-2-yl)-1-cyano-1-methylethyl]-4-trifluoromethoxybenzamide]
inhibition in vivo at 0.3 mg/kg [2]: ≥ 95%

CC(C#N)(Cn1cc2ncc(Br)cc2n1)NC(=O)c1ccc(OC(F)(F)F)cc1 (stereo not drawn) [Compound 3.011, N-[2-(6-Bromo-2H-pyrazolo[4,3-b]pyridin-2-yl)-1-cyano-1-methylethyl]-4-trifluoromethoxybenzamide]
inhibition in vivo at 0.3 mg/kg [2]: ≥ 95%
solubility [3]: 8600 µg/mL (≈ 18.4 mM)

C[C@](C#N)(Cn1cc2ncc(Br)cc2n1)NC(=O)c1ccc(OC(F)(F)F)cc1 [Compound 3.024, (+)-N-[2-(6-Bromo-2H-pyrazolo[4,3-b]pyridin-2-yl)-1-cyano-1-methylethyl]-4-trifluoromethoxybenzamide]
inhibition at 0.0025 ppm [1, 17]: ≥ 90%
potency at inhibiting the motility of Haemonchus contortus larvae, eutomer relative to distomer ([1]; relative to the distomer (compound 3.025)): greater than 100 times
inhibition in vivo at 0.1 mg/kg ([2]; dose 0.1 mg/kg): ≥ 95%
efficacy against Toxocara cati [4]: > 94%
efficacy against Ancylostoma tubaeforme [5]: > 94%
efficacy against Haemonchus placei [6, 18]: > 95%
efficacy against Haemonchus placei (ivermectin-resistant strain) [6, 19]: greater than 95%
efficacy against Ostertagia ostertagi [7]: > 95%
efficacy against Trichostrongylus axei [8]: > 95%
efficacy against Cooperia punctata [9]: > 95%
efficacy against Oesophagostomum radiatum [10]: > 95%
efficacy against Nematodirus helvetianus [11, 18]: > 95%
efficacy against Nematodirus helvetianus [11, 19]: greater than 95%
efficacy against all species of the nematodes tested (ivermectin-resistant) [12]: > 95%
efficacy against ivermectin-resistant Haemonchus contortus ([13]; 1.5 mg/kg or 3 mg/kg orally): greater than 95%
efficacy against ivermectin-resistant Ostertagia circumcincta ([14]; 1.5 mg/kg or 3 mg/kg orally): greater than 95%
efficacy against ivermectin-resistant Trichostrongylus columbriformis ([15]; 1.5 mg/kg or 3 mg/kg orally): greater than 95%
potency at inhibiting the motility of Caenorhabditis elegans, relative to compound 3.025 [16]: greater than 100 times

C[C@](C#N)(Cn1cc2ncc(Br)cc2n1)NC(=O)c1ccc(OC(F)(F)F)cc1 [Compound 3.025, (−)-N-[2-(6-Bromo-2H-pyrazolo[4,3-b]pyridin-2-yl)-1-cyano-1-methylethyl]-4-trifluoromethoxybenzamide]
inhibition at 0.3 ppm ([1]; Haemonchus contortus, 96 h, test concentration 0.3 ppm, 4 days assessment): < 90%
inhibition in vivo at 0.3 mg/kg [2]: < 95%

ivermectin [reference compound]
efficacy against Haemonchus placei (ivermectin-resistant strain) [6, 20]: less than 70%
efficacy against Nematodirus helvetianus [11, 20]: less than 30%
activity against ivermectin-resistant Haemonchus contortus ([13]; ivermectin orally at 0.2 mg/kg): almost completely inactive
efficacy against ivermectin-resistant Ostertagia circumcincta ([14]; ivermectin orally at 0.2 mg/kg): less than 30%
efficacy against ivermectin-resistant Trichostrongylus columbriformis ([15]; ivermectin orally at 0.2 mg/kg): less than 60%

Source: patent US8461176B2, “Enantiomerically enriched aryloazol-2-yl cyanoethylamino compounds, method of making and method of using thereof” (Merial Limited, priority 2008, dated 2013)
